From the NIST ThermoML archive (doi:10.1021/acs.jced.7b00227)

Tests used:
[1] = for Normal melting temperature: DTA
[2] = Molar enthalpy of transition or fusion; details: Crystal; DSC

O=Cc1ccccc1O [2-hydroxybenzaldehyde]
[1]
Details	vapor or sublimation pressure [kPa]
264.55 K, Crystal, Closed cell (Static) method	0.00232
266.52 K, Crystal, Closed cell (Static) method	0.00319
266.54 K, Metastable liquid, Closed cell (Static) method	0.00505
268.49 K, Crystal, Closed cell (Static) method	0.00453
268.5 K, Metastable liquid, Closed cell (Static) method	0.00606
270.45 K, Crystal, Closed cell (Static) method	0.00599
270.45 K, Metastable liquid, Closed cell (Static) method	0.00727
272.44 K, Metastable liquid, Closed cell (Static) method	0.00884
274.4 K, Closed cell (Static) method, Liquid	0.01038
276.37 K, Closed cell (Static) method, Liquid	0.01235
278.29 K, Closed cell (Static) method, Liquid	0.01469
280.27 K, Closed cell (Static) method, Liquid	0.01734
282.24 K, Closed cell (Static) method, Liquid	0.02049
284.23 K, Closed cell (Static) method, Liquid	0.02411
286.21 K, Closed cell (Static) method, Liquid	0.02842
288.16 K, Closed cell (Static) method, Liquid	0.03343
290.13 K, Closed cell (Static) method, Liquid	0.03878
292.14 K, Closed cell (Static) method, Liquid	0.0453
294.09 K, Closed cell (Static) method, Liquid	0.05232
296 K, Closed cell (Static) method, Liquid	0.06145
298.06 K, Closed cell (Static) method, Liquid	0.0702
300.04 K, Closed cell (Static) method, Liquid	0.08175
302.02 K, Closed cell (Static) method, Liquid	0.09355
304.24 K, Closed cell (Static) method, Liquid	0.1075
305.97 K, Closed cell (Static) method, Liquid	0.1228
307.92 K, Closed cell (Static) method, Liquid	0.1409
309.88 K, Closed cell (Static) method, Liquid	0.1603
311.9 K, Closed cell (Static) method, Liquid	0.1832
313.81 K, Closed cell (Static) method, Liquid	0.2071
315.78 K, Closed cell (Static) method, Liquid	0.2358
317.77 K, Closed cell (Static) method, Liquid	0.2661
319.78 K, Closed cell (Static) method, Liquid	0.3014
321.96 K, Closed cell (Static) method, Liquid	0.3441
323.95 K, Closed cell (Static) method, Liquid	0.3875
325.91 K, Closed cell (Static) method, Liquid	0.4352
327.88 K, Closed cell (Static) method, Liquid	0.4884
329.84 K, Closed cell (Static) method, Liquid	0.5465
331.84 K, Closed cell (Static) method, Liquid	0.611
333.81 K, Closed cell (Static) method, Liquid	0.682
335.78 K, Closed cell (Static) method, Liquid	0.7604
337.76 K, Closed cell (Static) method, Liquid	0.846
339.74 K, Closed cell (Static) method, Liquid	0.9402
341.67 K, Closed cell (Static) method, Liquid	1.042

Details	Normal melting temperature [°C]
[1], Crystal	-0.8

Details	Molar enthalpy of transition or fusion [kcal/mol]
[2]	3.18

O=Cc1cccc(O)c1 [3-hydroxybenzaldehyde]
[1]
Details	vapor or sublimation pressure [kPa]
309.13 K, Crystal, Calculated from knudsen effusion weight loss	8.9e-05
311.29 K, Crystal, Calculated from knudsen effusion weight loss	0.000118
313.21 K, Crystal, Calculated from knudsen effusion weight loss	0.00015
315.13 K, Crystal, Calculated from knudsen effusion weight loss	0.000189
317.29 K, Crystal, Calculated from knudsen effusion weight loss	0.000243
319.2 K, Crystal, Calculated from knudsen effusion weight loss	0.000308
321.13 K, Crystal, Calculated from knudsen effusion weight loss	0.00039
323.29 K, Crystal, Calculated from knudsen effusion weight loss	0.00049
324.86 K, Crystal, Closed cell (Static) method	0.00061
325.23 K, Crystal, Calculated from knudsen effusion weight loss	0.000616
326.85 K, Crystal, Closed cell (Static) method	0.00076
327.14 K, Crystal, Calculated from knudsen effusion weight loss	0.000763
328.83 K, Crystal, Closed cell (Static) method	0.00094
329.29 K, Crystal, Calculated from knudsen effusion weight loss	0.000957
330.84 K, Crystal, Closed cell (Static) method	0.00116
331.22 K, Crystal, Calculated from knudsen effusion weight loss	0.001188
332.78 K, Crystal, Closed cell (Static) method	0.00142
334.76 K, Crystal, Closed cell (Static) method	0.00176
336.76 K, Crystal, Closed cell (Static) method	0.00219
338.72 K, Crystal, Closed cell (Static) method	0.00269
340.73 K, Crystal, Closed cell (Static) method	0.00336
342.63 K, Crystal, Closed cell (Static) method	0.00405
344.71 K, Crystal, Closed cell (Static) method	0.00495
346.64 K, Crystal, Closed cell (Static) method	0.006
348.61 K, Crystal, Closed cell (Static) method	0.00733
350.55 K, Crystal, Closed cell (Static) method	0.00897
352.54 K, Crystal, Closed cell (Static) method	0.01085
354.49 K, Crystal, Closed cell (Static) method	0.01289
356.45 K, Crystal, Closed cell (Static) method	0.01575
358.45 K, Crystal, Closed cell (Static) method	0.01898
360.41 K, Crystal, Closed cell (Static) method	0.02275
362.4 K, Crystal, Closed cell (Static) method	0.02727
364.34 K, Crystal, Closed cell (Static) method	0.03226
366.32 K, Crystal, Closed cell (Static) method	0.03884
368.21 K, Crystal, Closed cell (Static) method	0.04637
368.31 K, Metastable liquid, Closed cell (Static) method	0.05807
370.35 K, Metastable liquid, Closed cell (Static) method	0.06605
372.25 K, Metastable liquid, Closed cell (Static) method	0.07435
374.24 K, Metastable liquid, Closed cell (Static) method	0.08475
376.14 K, Metastable liquid, Closed cell (Static) method	0.09434
378.15 K, Closed cell (Static) method, Liquid	0.1083
380.15 K, Closed cell (Static) method, Liquid	0.1217
382.09 K, Closed cell (Static) method, Liquid	0.1367
384.06 K, Closed cell (Static) method, Liquid	0.1536
386.07 K, Closed cell (Static) method, Liquid	0.1727
388 K, Closed cell (Static) method, Liquid	0.1931
389.95 K, Closed cell (Static) method, Liquid	0.2148
391.96 K, Closed cell (Static) method, Liquid	0.2415
395.88 K, Closed cell (Static) method, Liquid	0.3002
399.75 K, Closed cell (Static) method, Liquid	0.3687
403.71 K, Closed cell (Static) method, Liquid	0.454
405.31 K, Closed cell (Static) method, Liquid	0.49
407.66 K, Closed cell (Static) method, Liquid	0.5539
409.61 K, Closed cell (Static) method, Liquid	0.618
411.6 K, Closed cell (Static) method, Liquid	0.6754
413.56 K, Closed cell (Static) method, Liquid	0.751
415.52 K, Closed cell (Static) method, Liquid	0.814
417.46 K, Closed cell (Static) method, Liquid	0.902
419.41 K, Closed cell (Static) method, Liquid	0.994

Details	Normal melting temperature [°C]
[1], Crystal	104.5

Details	Molar enthalpy of transition or fusion [kcal/mol]
[2]	6.12

O=Cc1ccc(O)cc1 [4-hydroxybenzaldehyde]
[1]
Details	vapor or sublimation pressure [kPa]
319.14 K, Crystal, Calculated from knudsen effusion weight loss	7.6e-05
321.31 K, Crystal, Calculated from knudsen effusion weight loss	0.000101
323.2 K, Crystal, Calculated from knudsen effusion weight loss	0.000124
325.16 K, Crystal, Calculated from knudsen effusion weight loss	0.000152
327.35 K, Crystal, Calculated from knudsen effusion weight loss	0.000196
329.21 K, Crystal, Calculated from knudsen effusion weight loss	0.00024
331.15 K, Crystal, Calculated from knudsen effusion weight loss	0.000305
333.36 K, Crystal, Calculated from knudsen effusion weight loss	0.000383
334.88 K, Crystal, Closed cell (Static) method	0.00047
335.2 K, Crystal, Calculated from knudsen effusion weight loss	0.000476
336.84 K, Crystal, Closed cell (Static) method	0.00058
337.14 K, Crystal, Calculated from knudsen effusion weight loss	0.000583
338.82 K, Crystal, Closed cell (Static) method	0.00072
339.28 K, Crystal, Calculated from knudsen effusion weight loss	0.000737
340.78 K, Crystal, Closed cell (Static) method	0.00089
341.2 K, Crystal, Calculated from knudsen effusion weight loss	0.00091
342.79 K, Crystal, Closed cell (Static) method	0.00109
344.73 K, Crystal, Closed cell (Static) method	0.00133
346.72 K, Crystal, Closed cell (Static) method	0.00165
348.7 K, Crystal, Closed cell (Static) method	0.00199
350.66 K, Crystal, Closed cell (Static) method	0.00241
352.65 K, Crystal, Closed cell (Static) method	0.00296
354.62 K, Crystal, Closed cell (Static) method	0.00358
356.58 K, Crystal, Closed cell (Static) method	0.00433
358.56 K, Crystal, Closed cell (Static) method	0.00525
360.53 K, Crystal, Closed cell (Static) method	0.0064
362.52 K, Crystal, Closed cell (Static) method	0.00769
364.51 K, Crystal, Closed cell (Static) method	0.00915
366.46 K, Crystal, Closed cell (Static) method	0.01071
368.43 K, Crystal, Closed cell (Static) method	0.01274
370.43 K, Crystal, Closed cell (Static) method	0.01545
372.39 K, Crystal, Closed cell (Static) method	0.01842
374.32 K, Crystal, Closed cell (Static) method	0.02206
376.26 K, Crystal, Closed cell (Static) method	0.02606
378.18 K, Metastable liquid, Closed cell (Static) method	0.03765
378.32 K, Crystal, Closed cell (Static) method	0.03067
380.28 K, Metastable liquid, Closed cell (Static) method	0.04331
380.29 K, Crystal, Closed cell (Static) method	0.03625
382.26 K, Metastable liquid, Closed cell (Static) method	0.04915
384.18 K, Metastable liquid, Closed cell (Static) method	0.05575
385.95 K, Metastable liquid, Closed cell (Static) method	0.06255
388.15 K, Metastable liquid, Closed cell (Static) method	0.07155
390.14 K, Metastable liquid, Closed cell (Static) method	0.08085
392.11 K, Closed cell (Static) method, Liquid	0.09145
393.98 K, Closed cell (Static) method, Liquid	0.1013
396.02 K, Closed cell (Static) method, Liquid	0.1156
398.08 K, Closed cell (Static) method, Liquid	0.132
399.97 K, Closed cell (Static) method, Liquid	0.1466
402.15 K, Closed cell (Static) method, Liquid	0.1659
403.9 K, Closed cell (Static) method, Liquid	0.184
406.15 K, Closed cell (Static) method, Liquid	0.2077
407.83 K, Closed cell (Static) method, Liquid	0.2288
409.81 K, Closed cell (Static) method, Liquid	0.2537
411.77 K, Closed cell (Static) method, Liquid	0.281
413.71 K, Closed cell (Static) method, Liquid	0.315
415.68 K, Closed cell (Static) method, Liquid	0.3477
417.65 K, Closed cell (Static) method, Liquid	0.3831
419.62 K, Closed cell (Static) method, Liquid	0.4264
421.57 K, Closed cell (Static) method, Liquid	0.4738
423.73 K, Closed cell (Static) method, Liquid	0.5285
425.48 K, Closed cell (Static) method, Liquid	0.5776
427.46 K, Closed cell (Static) method, Liquid	0.6379
429.41 K, Closed cell (Static) method, Liquid	0.7018

Details	Normal melting temperature [°C]
[1], Crystal	117.1

Details	Molar enthalpy of transition or fusion [kcal/mol]
[2]	5.16
